According to patent publication US10590109B2, “Heterocyclic compounds used as FGFR inhibitors” (Nanjing InnoCare Pharma Tech Co., Ltd., priority 2016, dated 2020):
Like-named read-outs stand apart in the source and are kept apart here.

How the values were obtained:
[1] = molecular target: human recombinant FGFR4 catalytic structural domain protein (Homo sapiens (Human), UniProt P22455); experiment: FGFR4 activity inhibition test (HTRF kinase assay); type: biochemical; conditions: 90 μM ATP
Protocol: FGFR4 Activity Inhibition Test
The influence of the compound according to the present invention on the activity of fibroblast growth factor receptor 4 (FGFR4) was evaluated by an in vitro kinase assay experiment.
(§1) The experimental method is summarized as follows:
The in vitro activity of FGFR4 was determined by assaying the phosphorylation level of the substrate in the kinase reaction, by means of an HTRF kinase assay kit.
(§2) If the IC50 value of the compound was very low, the initial concentration of the compound could be reduced.
(§3) After 60 min, the enzyme reaction was terminated by EDTA in the assay solution, and the phosphorylated products were identified by both the Eu^3+ labeled cage-shaped antibody (donor) and the streptavidin labeled XL665 antibody (receptor) at the same time. […] The inhibition percentage of the compound against FGFR4 activity could be calculated with the following formula: Inhibition percentage=100−100*(signalcompound−signalnegative control)/(signalpositive control−signalnegative control)
The IC50 value of the compound was calculated by the following formula, from 10 concentration points, with XLfit (ID Business Solutions Ltd., UK): Y=Bottom+(Top−Bottom)/(1+10^((Log IC50−X)*slope factor)) Where, Y is the inhibition percentage, Bottom is the bottom plateau of the curve (the bottom plateau of the S-type curve), Top is the top plateau of the curve (the top plateau of the S-type curve), and X is the log value of the compound concentration to be measured.

[2] = molecular target: human recombinant FGFR1 catalytic structural domain protein (Homo sapiens (Human), UniProt P11362); experiment: FGFR1 activity inhibition test (HTRF kinase assay); type: biochemical; conditions: 40 μM ATP
Protocol: FGFR1 Activity Inhibition Test
The influence of the compound according to the present invention on the activity of fibroblast growth factor receptor 1 (FGFR1) was evaluated by an in vitro kinase assay experiment.
as §1
The in vitro activity of FGFR1 was determined by assaying the phosphorylation level of the substrate in the kinase reaction, by means of an HTRF kinase assay kit.
as §2
as §3, with “FGFR1” for “FGFR4”
The IC50 value of the compound was calculated by the following formula, from 10 concentration points, with XLfit (ID Business Solutions Ltd., UK): Y=Bottom+(Top−Bottom)/(1+10^((Log IC50−X)*slope factor))
(§4) Where, Y is the inhibition percentage, Bottom is the bottom plateau of the curve (the bottom plateau of the S-type curve), Top is the top plateau of the curve (the top plateau of the S-type curve), and X is the log value of the compound concentration to be measured.

Hep3B cells = experiment: Hep3B cell proliferation inhibition test (CellTiter-Glo); type: cell-based; conditions: Homo sapiens, 72 h, CTG
Protocol: Hep3B Cell Proliferation Inhibition Test
The influence of the compound according to the present invention on Hep3B cell proliferation was evaluated by a luminescence cell viability test.
as §1
A CellTilter-Glo (CTG) assay kit was used to detect an indicator ATP of active cellular metabolism by means of a unique stable luciferase, and the luminous signal produced in the test was in direct proportion to the count of active cells in the medium, thereby to detect the cell proliferation of Hep3B.
A CellTilter-Glo agent (Promega, G7572) was comprised of a CellTilter-Glo lyophilized powder and a CellTilter-Glo buffer, and the lyophilized powder was dissolved into the buffer in use.
Hep3B cells (ATCC, HB-8064) (cell source: Shanghai Academy of Life Sciences, Chinese Academy of Sciences) were cultured in a DMEM complete medium (Thermofisher, 11995073) containing a 10% FBS (GBICO, 10099-141) and 100 units/ml mycillin mixed solution (Thermofisher, 15140122). When the cells coverage reached 80-90% in the culture vessel, after the cells were digested and blown about with 0.25% pancreatin (containing EDTA) (Thermofisher, 25200056), they were planted in a white 384 well plate (Thermofisher, 164610), with 1000 cells in each well (27 μl of a DMEM complete medium), and then the 384 well plate was placed into an incubator at 37° C. and 5% CO2 and cultured overnight (18-20 h). The compound was dissolved and diluted in 100% DMSO to 100 μM, then 4-fold-series diluted with DMSO to a minimum concentration of 0.0061 μM, and each concentration point was 50-fold diluted with the FBS-free DMEM medium. If the IC50 value of the compound was very low, the initial concentration of the compound could be reduced. […] This 384 well plate was placed into an incubator at 37° C. and 5% CO2 for further culture, taken out after 72 h, and stood at room temperature for 30 min. The CTG agent was also taken out and balanced to room temperature. 15 μl of the CTG agent was added into each well, and placed onto a shaker to be gently shaken for 3 min to ensure sufficient cell lysis. After 10 min of standing to allow the luminescence signal to be stable, the luminescence signal was read with EnVision (Perkin Elmer).
The inhibition percentage of the compound against Hep3B cell proliferation could be calculated with the following formula: Inhibition percentage=100−100*(signalcompound−signalnegative control)/(signalpositive control−signalnegative control)
The IC50 value of the compound was calculated by the following formula, from 8 concentration points, with XLfit (ID Business Solutions Ltd., UK): Y=Bottom+(Top−Bottom)/(1+10^((Log IC50−X)*slope factor))
as §4

[3] = system: FGF19/FGFR4-overexpressed Hep3B hepatocellular carcinoma (HCC) xenograft tumors; type: in vivo; conditions: for TGI value / mean tumor size: day 18
Protocol: Data points represent group mean, error bars represent standard error of the mean (SEM). *P<0.05, **P<0.01, ***P<0.001, ****P<0.0001, NS P>0.05 vs vehicle group.
The relative change of body weights (% RCBW) was calculated based on the following formula: RCBW (%)=(BWi−BW0)/BW0×100%, BWi was the bodyweight on the day of dosing and BW0 was the bodyweight on the first day of administration. Data points represent percent group mean change in BW. Error bars represent standard error of the mean (SEM).
Dosing was initiated on day 0 and effects on tumor growth were evaluated by measuring percent tumor growth inhibition (TGI) at the end of the study. Tolerability was assessed by body weight loss, lethality, and clinical signs of adverse treatment-related side effects. Tumor volumes and body weights were measured twice per week in the administration period. The percentage of TGI was determined on day 18 of the study. The difference between the mean values of tumor volume in treatment and vehicle groups was analyzed for significance using one-way ANOVA (followed by Dennett's test) at each time point and a P<0.05 was considered to be statistically significant.

[4] = 100 mg/kg BID for 18 days, oral

Sequence of human recombinant FGFR4 catalytic structural domain protein (P22455 460-802): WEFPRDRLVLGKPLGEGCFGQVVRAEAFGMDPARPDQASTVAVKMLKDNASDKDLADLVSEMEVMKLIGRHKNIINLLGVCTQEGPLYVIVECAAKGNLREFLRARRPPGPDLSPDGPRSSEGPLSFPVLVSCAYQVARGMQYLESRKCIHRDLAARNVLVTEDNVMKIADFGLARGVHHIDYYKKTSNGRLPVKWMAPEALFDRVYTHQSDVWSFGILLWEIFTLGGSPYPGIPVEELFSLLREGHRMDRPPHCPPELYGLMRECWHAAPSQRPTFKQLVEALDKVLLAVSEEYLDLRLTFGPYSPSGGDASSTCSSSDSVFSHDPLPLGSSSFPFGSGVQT
Sequence of human recombinant FGFR1 catalytic structural domain protein (P11362 other isoform, or with tags, fused parts or gaps): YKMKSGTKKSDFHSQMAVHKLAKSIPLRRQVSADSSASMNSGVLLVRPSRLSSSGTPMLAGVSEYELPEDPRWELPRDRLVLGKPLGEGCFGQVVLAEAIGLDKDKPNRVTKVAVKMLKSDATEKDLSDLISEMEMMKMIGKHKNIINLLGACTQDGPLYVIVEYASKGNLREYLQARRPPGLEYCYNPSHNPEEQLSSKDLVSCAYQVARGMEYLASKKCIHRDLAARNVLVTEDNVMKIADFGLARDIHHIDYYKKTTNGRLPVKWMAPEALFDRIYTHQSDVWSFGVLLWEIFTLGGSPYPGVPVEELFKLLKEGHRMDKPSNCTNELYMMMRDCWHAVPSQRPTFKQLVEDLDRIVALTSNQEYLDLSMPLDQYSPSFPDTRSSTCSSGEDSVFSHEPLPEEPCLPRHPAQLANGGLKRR

| IC50 [1] | IC50 [2] | IC50 (Hep3B cells) | Compound | further results |
| --- | --- | --- | --- | --- |
| < 10 nM | > 1000 nM |  | COCCOc1cc(NC(=O)N(C)c2cccc(C=O)n2)ncc1C#N [Compound 7, 3-(5-cyano-4-(2-methoxyethoxy)pyrid-2-yl)-1-(6-formylpyrid-2-yl)-1-methylurea] |  |
|  |  | 50 to 100 nM | CC(C)Nc1cc(NC(=O)N(C)c2ccc(CN3CCOCC3=O)c(C=O)n2)ncc1C#N [Compound 10, 3-(5-cyano-4-(isopropylamino)pyrid-2-yl)-1-(6-formyl-5-((3-carbonylmorpholino)methyl)pyrid-2-yl)-1-methylurea] |  |
|  |  | < 50 nM | COCCNc1cc(NC(=O)N(C)c2ccc(CN3CCOCC3=O)c(C=O)n2)ncc1C#N [Compound 9, 3-(5-cyano-4-((2-methoxyethyl)amino)pyrid-2-yl)-1-(6-formyl-5-((3-carbonylmorpholino)methyl)pyrid-2-yl)-1-methylurea] |  |
| < 10 nM | > 1000 nM |  | CC(C)Nc1cc(NC(=O)N(C)c2cccc(C=O)n2)ncc1C#N [Compound 5, 3-(5-cyano-4-(isopropylamino)pyrid-2-yl)-1-(6-formylpyrid-2-yl)-1-methylurea] |  |
|  | > 1000 nM |  | COCCNc1cc(NC(=O)N(C)c2cccc(C=O)n2)ncc1C#N [Compound 1, 3-(5-cyano-4-((2-methoxyethyl)amino)pyrid-2-yl)-1-(6-formylpyrid-2-yl)-1-methyl urea] |  |
|  |  | 50 to 100 nM | CC(C)Oc1cc(NC(=O)N(C)c2ccc(CN3CCN(C)CC3=O)c(C=O)n2)ncc1C#N [Compound 19, 3-(5-cyano-4-isopropoxypyrid-2-yl)-1-(6-formyl-5-((4-methyl-2-carbonylpiperazin-1-yl)methyl)pyrid-2-yl)-1-methylurea] |  |
|  |  | < 50 nM | COCCOc1cc(NC(=O)N(C)c2ccc(CN3CCOCC3=O)c(C=O)n2)ncc1C#N [Compound 12] |  |
| 10 to 100 nM | > 1000 nM |  | CN(C(=O)Nc1ccc(C#N)cn1)c1cccc(C=O)n1 [Compound 3, 3-(5-cyanopyrid-2-yl)-1-(6-formylpyrid-2-yl)-1-methylurea] |  |
| 100 to 1000 nM | > 1000 nM |  | CN(C(=O)Nc1cc(Cl)ncn1)c1cccc(C=O)n1 [Compound 2, 3-(6-chloropyrimidin-4-yl)-1-(6-formylpyrid-2-yl)-1-methylurea] |  |
| < 10 nM | > 1000 nM |  | CC(C)Oc1cc(NC(=O)N(C)c2cccc(C=O)n2)ncc1C#N [Compound 6, 3-(5-cyano-4-isopropoxypyrid-2-yl)-1-(6-formylpyrid-2-yl)-1-methylurea] |  |
|  |  |  | CNC(=O)c1cc(Oc2ccc(NC(=O)Nc3ccc(Cl)c(C(F)(F)F)c3)cc2)ccn1 [sorafenib, reference compound] | antitumor activity (in words) ([3]; 40 mg/kg QD, oral): some antitumor activity |
|  |  | < 50 nM | CC(C)Nc1cc(NC(=O)N(C)c2ccc(CN3CCN(C)CC3=O)c(C=O)n2)ncc1C#N [Compound 16, 3-(5-cyano-4-(isopropylamino)pyrid-2-yl)-1-(6-formyl-5-((4-methyl-2-carbonylpiperazin-1-yl)methyl)pyrid-2-yl)-1-methylurea] |  |

| Compound | IC50 [1] | IC50 [2] | IC50 (Hep3B cells) | further results |
| --- | --- | --- | --- | --- |
| COC[C@@H](C)Oc1cc(NC(=O)N(C)c2ccc(CN3CCN(C)CC3=O)c(C=O)n2)ncc1C#N [Compound 18, (R)-3-(5-cyano-4-((1-methoxyprop-2-yl)oxo)pyrid-2-yl)-1-(6-formyl-5-((4-methyl-2-carbonylpiperazin-1-yl)methyl)pyrid-2-yl)-1-methylurea] |  |  | < 50 nM | TGI value ([3]; 10 mg/kg BID for 18 days, oral): 96.4%; mean tumor size ([3]; 10 mg/kg BID for 18 days, oral): 230 mm^3; TGI value ([3]; 30 mg/kg BID for 18 days, oral): 108.3%; mean tumor size ([3]; 30 mg/kg BID for 18 days, oral): 16 mm^3; TGI value ([3]; 60 mg/kg QD for 18 days, oral): 104.4%; mean tumor size ([3]; 60 mg/kg QD for 18 days, oral): 86 mm^3; TGI value [3, 4]: 109.2%; mean tumor size [3, 4]: 0 mm^3; tolerability by tumor-bearing animals ([3]; all dose levels): well-tolerated; body weight loss during the treatment ([3]; all groups): didn't exhibit significant body weight loss |
| CN1CCN(Cc2ccc(N(C)C(=O)Nc3cc(Cl)c(C#N)cn3)nc2C=O)C(=O)C1 [Compound 17, 3-(4-chloro-5-cyanopyrid-2-yl)-1-(6-formyl-5-((4-methyl-2-carbonylpiperazin-1-yl)methyl)pyrid-2-yl)-1-methyl urea] | 100 to 1000 nM |  |  |  |
| COCCNc1cc(NC(=O)N(C)c2nccc(C=O)n2)ncc1C#N [Compound 8, 3-(5-cyano-4-((2-methoxyethyl)amino)pyrid-2-yl)-1-(4-formylpyrimidin-2-yl)-1-methylurea] | 100 to 1000 nM | > 1000 nM |  |  |
